From patent US20240368174A1, “Antiviral Heterocyclic Compounds” (Enanta Pharmaceuticals, Inc., priority 2023, published 2024)

Tested on: HMPV clinical isolate A2 strain TN 94-49
Assay: HMPV antiviral assay, Method 2 (LLC-MK2 cells with CP-100-356, ATP-Lite)
Assay type: cell-based
Conditions: human metapneumovirus; hMPV A2 TN/94-49, LLC-MK2 cells with CP-100-356, Method 2
Description: In vitro HMPV antiviral activity was evaluated using the clinical isolate A2 strain TN 94-49 (obtained from Dr. John Williams, Vanderbilt University, Tennessee) and LLC-MK2 cells (Millipore Sigma CB_85062804), an immortalized kidney epithelial cell line from Macaca mulatta. Compounds were resuspended in dimethyl sulfoxide (DMSO) at 10 mM, serially diluted and added to a 384-well source plate. Subsequently, the compounds were diluted and transferred onto 384-well assay plates using the Echo-650 automated liquid handling system (Beckman Coulter, Indiana). The test compounds were assessed in duplicate at a top concentration of 200 nM followed by 2.5-fold serial dilutions to give a total of 10 concentration points. DMSO control wells were also included on the assay plates and were either infected or not, acting as positive and negative controls. A2 TN 94-49 virus infections were performed in-suspension with LLC-MK2 cells. The cells were washed twice with PBS and removed from the cell-culture flask with 0.25% trypsin-EDTA (Thermo Fisher Scientific, MA). The trypsin-EDTA was inactivated by resuspending in 2% fetal bovine serum (FBS) and OptiMEM (ThermoFisher Scientific, MA) containing 1% antibiotic-antimycotic. Cells were pelleted by centrifuging for 5 minutes at 800 rpm, the supernatant was removed, and cells were re-suspended and washed in PBS plus 100 μg/mL CaCl2). This step was performed twice. Cells were then re-suspended in serum-free (SF)-OptiMEM containing 4 μg/mL TPCK-Trypsin (Sigma Aldrich, MO), 1% antibiotic-antimycotic (ThermoFisher Scientific, MA), 100 μg/mL CaCl2), and 4 μM of CP-100-356, a P-glycoprotein inhibitor. Cells were counted and seeded at a density of 5,000 cells/well, 12.5 μL/well. Virus infections were done at a multiplicity of infection (MOI) of 0.16 with 12.5 μL added per well. Virus infections were performed in infection media which contained SF-OptiMEM, 100 μg/mL CaCl2) and 1% antibiotic-antimycotic. HMPV viral stocks are suspended in infection media+5% glycerol, thus an equal volume of infection media+5% glycerol was added to uninfected wells to equalize the final % glycerol across all wells of the assay plate. The final concentration of TPCK-trypsin was 2 μg/mL. The final concentration of CP-100-356 was 2 μM. The assay plates were incubated at 37° C., 5% CO2 for 7 days. After 7 days incubation, 12.5 μL of ATP-Lite (PerkinElmer, MA) was added to each well and the raw luminescence values were determined using the Envision 2104 (Perkin Elmer, MA). The average of the raw luminescence values for the cells and virus only positive control wells was subtracted from all conditions tested and the percent cell health was determined by dividing these values by the average of the cells only negative control wells. EC50 values were then calculated by non-linear regression using a four-parameter curve logistic equation. The curve fit model employed was XLFit Dose Response One Site Model 200: y=(A+(B/(1+((x/C)^D)))), where A is the minimum y value, B is the maximum y value, C is the log EC50 value, and D is the slope factor.

| EC50 | SMILES |
| --- | --- |
| < 200 nM | COc1cc(C(=O)NC[C@](O)(c2cc3c(c(-c4cc(C(F)(F)F)c(F)cc4F)n2)OC[C@]3(C)C(N)=O)C2CC2)cc2cc(C(F)(F)F)cnc12 [Example 329] |
| < 200 nM | COc1cc(C(=O)NC[C@](O)(c2cc3c(c(-c4ccc(F)c(C(F)(F)F)c4)n2)OC[C@]3(C)C(N)=O)C2CC2)cc2oc(C3CC3)nc12 [Example 330] |
| < 200 nM | COc1cc(C(=O)NC[C@@](O)(c2ccccc2)c2cc3c(c(-c4cc(Cl)ccc4F)n2)OC[C@]3(C)C(N)=O)cc2oc(C3CC3)nc12 [Example 331] |
| < 200 nM | COc1cc(C(=O)NC[C@@](O)(c2ccccc2)c2cc3c(c(-c4cc(C(F)(F)F)ccc4F)n2)OC[C@]3(C)C(N)=O)cc2oc(C3CC3)nc12 [Example 332] |
| < 200 nM | COc1cc(C(=O)NC[C@@](O)(c2cccc(F)c2)c2cc3c(c(-c4cccc(Cl)c4Cl)n2)OC[C@]3(C)C(N)=O)cc2cc(Cl)cnc12 [Example 333] |
| < 200 nM | C[C@]1(C(N)=O)COc2c1cc([C@@](O)(CNC(=O)c1cc(OC3CC3)c3ncc(Cl)cc3c1)c1cccc(F)c1)nc2-c1cccc(Cl)c1Cl [Example 334] |
| < 200 nM | C[C@]1(C(N)=O)COc2c1cc([C@@](O)(CNC(=O)c1cc(OC3CC3)n3nc(C4CC4)cc3c1)c1cccc(F)c1)nc2-c1cccc(Cl)c1Cl [Example 335] |
| < 200 nM | COc1cc(C(=O)NC[C@@](O)(c2cccc(F)c2)c2cc3c(c(-c4cccc(Cl)c4Cl)n2)OC[C@]3(C)C(N)=O)cc2cc(C3CC3)nn12 [Example 336] |
| < 200 nM | COc1cc(C(=O)NC[C@@](O)(c2cccc(F)c2)c2cc3c(c(-c4cccc(Cl)c4Cl)n2)OC[C@]3(C)C(N)=O)cn2cc(C3CC3)nc12 [Example 337] |
| < 200 nM | C[C@]1(C(N)=O)COc2c1cc([C@@](O)(CNC(=O)c1cc(OC3CC3)c3nn(C4(F)CC4)cc3c1)c1cccc(F)c1)nc2-c1cccc(Cl)c1Cl [Example 339] |
| < 200 nM | COc1cc(C(=O)NC[C@@](O)(c2cccc(F)n2)c2cc3c(c(-c4ccc(F)c(Cl)c4Cl)n2)OC[C@]3(C)C(N)=O)cc2cn(C3CC3)nc12 [Example 340] |
| > 200 nM | COc1cc(C(=O)NC[C@@](O)(c2ccccc2)c2cc3c(c(-c4cc(Cl)c(F)cc4F)n2)OC[C@]3(C)C(N)=O)cc2cc(Cl)c(F)nc12 [Example 342] |
| < 200 nM | C[C@]1(C(N)=O)COc2c1cc([C@@](O)(CNC(=O)c1cc(Cl)c3nn(C4CC4)cc3c1)C1CC1)nc2-c1cc(C(F)(F)F)ncc1F [Example 353] |
| < 200 nM | COc1cc(C(=O)NC[C@](O)(c2cc3c(c(-c4cc(C(F)(F)F)ncc4F)n2)OC[C@]3(C)C(N)=O)C2CC2)cc2cc(C3CC3)nn12 [Example 354] |
| < 200 nM | COc1cc(C(=O)NC[C@@](O)(c2ccccc2)c2cc3c(c(-c4ccnc(F)c4Cl)n2)OC[C@]3(C)C(N)=O)cc2cn(C(F)F)nc12 [Example 358] |
| < 200 nM | COc1cc(C(=O)NC[C@@](O)(c2ccccc2)c2cc3c(c(-c4ccnc(F)c4Cl)n2)OC[C@]3(C)C(N)=O)cn2cc(C3CC3)nc12 [Example 359] |
| > 200 nM | COc1cc(C(=O)NCC(O)(c2ccccc2)c2cc3c(c(-c4ccc(F)cc4)n2)OC[C@]3(C)C(N)=O)cc2cn(C3(F)CC3)nc12 (stereo partly shown) [Example 361] |
| < 200 nM | COc1cc(C(=O)NCC(O)(c2ccccc2)c2cc3c(c(-c4ccc(F)c(Cl)c4)n2)OC[C@]3(C)C(N)=O)cc2cn(C3(F)CC3)nc12 (stereo partly shown) [Example 362] |
| > 200 nM | COc1cc(F)c(-c2nc([C@@](O)(CNC(=O)c3cc(OC)c4nn(C5(F)CC5)cc4c3)c3ccccc3)cc3c2OC[C@]3(C)C(N)=O)cc1F [Example 363] |
| > 200 nM | COc1cc(-c2nc([C@@](O)(CNC(=O)c3cc(OC)c4nn(C5(F)CC5)cc4c3)c3ccccc3)cc3c2OC[C@]3(C)C(N)=O)c(F)cc1F [Example 364] |
| < 200 nM | COc1cc(F)c(F)cc1-c1nc([C@@](O)(CNC(=O)c2cc(OC)c3nn(C4(F)CC4)cc3c2)c2ccccc2)cc2c1OC[C@]2(C)C(N)=O [Example 365] |
| > 200 nM | COc1cc(C(=O)NC[C@@](O)(c2ccccc2)c2cc3c(c(-c4cccc5c4OCO5)n2)OC[C@]3(C)C(N)=O)cc2cn(C3(F)CC3)nc12 [Example 366] |

| EC50 | SMILES |
| --- | --- |
| < 200 nM | COc1cc(C(=O)NC[C@@](O)(c2ccccc2)c2cc3c(c(-c4cccc(F)c4F)n2)OC[C@]3(C)C(N)=O)cc2cn(C3(F)CC3)nc12 [Example 367] |
| < 200 nM | COc1cc(C(=O)NC[C@@](O)(c2ccccc2)c2cc3c(c(-c4cccc(F)c4Cl)n2)OC[C@]3(C)C(N)=O)cc2cn(C3(F)CC3)nc12 [Example 368] |
| < 200 nM | COc1cc(C(=O)NC[C@@](O)(c2ccccc2)c2cc3c(c(-c4cccc(Cl)c4F)n2)OC[C@]3(C)C(N)=O)cc2cn(C3(F)CC3)nc12 [Example 369] |
| < 200 nM | COc1cc(C(=O)NC[C@@](O)(c2ccccc2)c2cc3c(c(-c4ccc(F)c(F)c4Cl)n2)OC[C@]3(C)C(N)=O)cc2cn(C3(F)CC3)nc12 [Example 370] |
| > 200 nM | COc1cc(C(=O)NC[C@@](O)(c2ccccc2)c2cc3c(c(-c4ccc(S(C)(=O)=O)cc4F)n2)OC[C@]3(C)C(N)=O)cc2cn(C3(F)CC3)nc12 [Example 371] |
| > 200 nM | COc1cc(C(=O)NC[C@@](O)(c2ccccc2)c2cc3c(c(-c4cc(S(C)(=O)=O)ccc4F)n2)OC[C@]3(C)C(N)=O)cc2cn(C3(F)CC3)nc12 [Example 372] |
| < 200 nM | COc1cccc(-c2nc([C@@](O)(CNC(=O)c3cc(OC)c4nn(C5(F)CC5)cc4c3)c3ccccc3)cc3c2OC[C@]3(C)C(N)=O)c1Cl [Example 374] |
| < 200 nM | COc1c(F)ccc(-c2nc([C@@](O)(CNC(=O)c3cc(OC)c4nn(C5(F)CC5)cc4c3)c3ccccc3)cc3c2OC[C@]3(C)C(N)=O)c1Cl [Example 375] |
| > 200 nM | COc1cc(C(=O)NC[C@@](O)(c2cccc(F)c2)c2cc3c(c(-c4ccncc4Cl)n2)OC[C@]3(C)C(N)=O)cc2cn(C3CC3)nc12 [Example 377] |
| < 200 nM | COc1cc(C(=O)NC[C@](O)(c2cc3c(c(-c4ccnc(F)c4F)n2)OC[C@]3(C)C(N)=O)C2CC2)cc2cn(C3CC3)nc12 [Example 381] |
| < 200 nM | COc1cc(C(=O)NC[C@](O)(c2cc3c(c(-c4cc(F)ncc4F)n2)OC[C@]3(C)C(N)=O)C2CC2)cc2cn(C3CC3)nc12 [Example 382] |
| < 200 nM | COc1cc(C(=O)NC[C@](O)(c2cc3c(c(-c4ccnc(F)c4C)n2)OC[C@]3(C)C(N)=O)C2CC2)cc2cn(C3CC3)nc12 [Example 383] |
| < 200 nM | COc1cc(C(=O)NC[C@](O)(c2cc3c(c(-c4cc(F)ncc4Cl)n2)OC[C@]3(C)C(N)=O)C2CC2)cc2cn(C3CC3)nc12 [Example 384] |
| > 200 nM | COc1cc(C(=O)NC[C@](O)(c2cc3c(c(-c4ccc(SC(F)(F)F)cc4)n2)OC[C@]3(C)C(N)=O)C2CC2)cc2cn(C3CC3)nc12 [Example 386] |
| < 200 nM | COc1cc(C(=O)NC[C@](O)(c2cc3c(c(-c4ccnc(Cl)c4Cl)n2)OC[C@]3(C)C(N)=O)C2CC2)cc2cn(C3CC3)nc12 [Example 387] |
| < 200 nM | COc1cc(-c2nc([C@@](O)(CNC(=O)c3cc(OC)c4nn(C5CC5)cc4c3)C3CC3)cc3c2OC[C@]3(C)C(N)=O)c(F)cn1 [Example 388] |
| < 200 nM | COc1cc(C(=O)NC[C@](O)(c2cc3c(c(-c4cc(Cl)ncc4Cl)n2)OC[C@]3(C)C(N)=O)C2CC2)cc2cn(C3CC3)nc12 [Example 389] |
| < 200 nM | COc1cc(C(=O)NC[C@](O)(c2cc3c(c(-c4cc(C(F)(F)F)c(F)cc4F)n2)OC[C@]3(C)C(N)=O)C(F)(F)F)cc2cn(C3CC3)nc12 [Example 395] |
| < 200 nM | COc1cc(C(=O)NC[C@](O)(c2cc3c(c(-c4cc(C(F)F)c(F)cc4F)n2)OC[C@]3(C)C(N)=O)C(F)(F)F)cc2cn(C3CC3)nc12 [Example 396] |
| > 200 nM | COc1cc(C(=O)NC[C@@](O)(c2cccc(F)c2)c2cc3c(c(-c4ccc(C(C)(C)O)cc4)n2)OC[C@]3(C)C(N)=O)cc2cn(C3(F)CC3)nc12 [Example 397] |
| > 200 nM | COc1cc(C(=O)NC[C@](O)(c2cccc(F)c2)c2cc3c(c(-c4ccc(C(C)(C)O)cc4)n2)OC[C@]3(C)C(N)=O)cc2cn(C3(F)CC3)nc12 [Example 398] |
